Measured values taken from patent US8877748B2, “Heterocyclic fused anthraquinone derivatives, manufacturing method and pharmaceutical composition using thereof” (National Defense Medical Center, priority 2012, dated 2014).

Legend:
[1] = test system: PC-3 prostate cancer cell line; test: SRB assay cell viability, PC-3 prostate cancer cell line; type: cell-based, human; settings: PC-3 prostate cancer cell line, Table II prints no unit, μM printed, read-out: SRB assay: 50% inhibition of cancer cell proliferation of sample concentration (IC50) of PC-3 prostate cancer cell line
HL-60, TB = test: NCI one-dose screening, leukemia HL-60, TB; type: cell-based, human; settings: 10 μM
MOLT-4 = test: NCI one-dose screening, leukemia MOLT-4; type: cell-based, human; settings: 10 μM
SR = test: NCI one-dose screening, leukemia SR; type: cell-based, human; settings: 10 μM
PRMI-8226 cell line = test: NCI one-dose screening, leukemia PRMI-8226; type: cell-based, human; settings: 10 μM
K562cell line = test: NCI one-dose screening, leukemia K562; type: cell-based, human; settings: 10 μM
EKVX = test: NCI one-dose screening, non-small cell lung cancer EKVX; type: cell-based, human; settings: 10 μM
HOP-62 = test: NCI one-dose screening, non-small cell lung cancer HOP-62; type: cell-based, human; settings: 10 μM
HOP-92 = test: NCI one-dose screening, non-small cell lung cancer HOP-92; type: cell-based, human; settings: 10 μM
NCI-H226 = test: NCI one-dose screening, non-small cell lung cancer NCI-H226; type: cell-based, human; settings: 10 μM
NCI-H23 = test: NCI one-dose screening, non-small cell lung cancer NCI-H23; type: cell-based, human; settings: 10 μM
NCI-H460 = test: NCI one-dose screening, non-small cell lung cancer NCI-H460; type: cell-based, human; settings: 10 μM
NCI-H522 = test: NCI one-dose screening, non-small cell lung cancer NCI-H522; type: cell-based, human; settings: 10 μM
A549/ATCC = test: NCI one-dose screening, non-small cell lung cancer A549/ATCC; type: cell-based, human; settings: 10 μM
COLO 205 = test: NCI one-dose screening, colon cancer COLO 205; type: cell-based, human; settings: 10 μM
HCC-2998 = test: NCI one-dose screening, colon cancer HCC-2998; type: cell-based, human; settings: 10 μM
HCT-116 = test: NCI one-dose screening, colon cancer HCT-116; type: cell-based, human; settings: 10 μM
HCT-15 = test: NCI one-dose screening, colon cancer HCT-15; type: cell-based, human; settings: 10 μM
KM12 = test: NCI one-dose screening, colon cancer KM12; type: cell-based, human; settings: 10 μM
HT29 = test: NCI one-dose screening, colon cancer HT29; type: cell-based, human; settings: 10 μM
SF-268 = test: NCI one-dose screening, CNS cancer SF-268; type: cell-based, human; settings: 10 μM
SF-295 = test: NCI one-dose screening, CNS cancer SF-295; type: cell-based, human; settings: 10 μM
SF-539 = test: NCI one-dose screening, CNS cancer SF-539; type: cell-based, human; settings: 10 μM
SNB-19 = test: NCI one-dose screening, CNS cancer SNB-19; type: cell-based, human; settings: 10 μM
SNB-75 = test: NCI one-dose screening, CNS cancer SNB-75; type: cell-based, human; settings: 10 μM
U251 = test: NCI one-dose screening, CNS cancer U251; type: cell-based, human; settings: 10 μM
LOX IMVI = test: NCI one-dose screening, melanoma LOX IMVI; type: cell-based, human; settings: 10 μM
MALME-3M = test: NCI one-dose screening, melanoma MALME-3M; type: cell-based, human; settings: 10 μM
M14 = test: NCI one-dose screening, melanoma M14; type: cell-based, human; settings: 10 μM
UACC-62 = test: NCI one-dose screening, melanoma UACC-62; type: cell-based, human; settings: 10 μM
UACC-257 = test: NCI one-dose screening, melanoma UACC-257; type: cell-based, human; settings: 10 μM
SK-MEL-2 = test: NCI one-dose screening, melanoma SK-MEL-2; type: cell-based, human; settings: 10 μM
SK-MEL-28 = test: NCI one-dose screening, melanoma SK-MEL-28; type: cell-based, human; settings: 10 μM
SK-MEL-5 = test: NCI one-dose screening, melanoma SK-MEL-5; type: cell-based, human; settings: 10 μM
IGROV1 = test: NCI one-dose screening, ovarian cancer IGROV1; type: cell-based, human; settings: 10 μM
OVCAR-3 = test: NCI one-dose screening, ovarian cancer OVCAR-3; type: cell-based, human; settings: 10 μM
OVCAR-5 = test: NCI one-dose screening, ovarian cancer OVCAR-5; type: cell-based, human; settings: 10 μM
OVCAR-8 = test: NCI one-dose screening, ovarian cancer OVCAR-8; type: cell-based, human; settings: 10 μM
SK-OV-3 = test: NCI one-dose screening, ovarian cancer SK-OV-3; type: cell-based, human; settings: 10 μM
786-O = test: NCI one-dose screening, renal cancer 786-O; type: cell-based, human; settings: 10 μM
CAKI-1 = test: NCI one-dose screening, renal cancer CAKI-1; type: cell-based, human; settings: 10 μM
[2] = NCI one-dose screening, renal cancer A489; type: cell-based, human; settings: 10 μM
ACHN = test: NCI one-dose screening, renal cancer ACHN; type: cell-based, human; settings: 10 μM
SN12C = test: NCI one-dose screening, renal cancer SN12C; type: cell-based, human; settings: 10 μM
TK-10 = test: NCI one-dose screening, renal cancer TK-10; type: cell-based, human; settings: 10 μM
UO-31 = test: NCI one-dose screening, renal cancer UO-31; type: cell-based, human; settings: 10 μM
RXF, 393 = test: NCI one-dose screening, renal cancer RXF, 393; type: cell-based, human; settings: 10 μM
DU145 = test: NCI one-dose screening, prostate cancer DU145; type: cell-based, human; settings: 10 μM
PC-3 = test: NCI one-dose screening, prostate cancer PC-3; type: cell-based, human; settings: 10 μM
MCF7 = test: NCI one-dose screening, breast cancer MCF7; type: cell-based, human; settings: 10 μM
HS 578-T = test: NCI one-dose screening, breast cancer HS 578-T; type: cell-based, human; settings: 10 μM; Breast cancer
MDA-MB-231/ATCC = test: NCI one-dose screening, breast cancer MDA-MB-231/ATCC; type: cell-based, human; settings: 10 μM
MDA-MB-468 = test: NCI one-dose screening, breast cancer MDA-MB-468; type: cell-based, human; settings: 10 μM
NCl/ADR-RES = test: NCI one-dose screening, breast cancer NCl/ADR-RES; type: cell-based, human; settings: 10 μM; listed under Ovarian cancer
BT-549 = test: NCI one-dose screening, breast cancer BT-549; type: cell-based, human; settings: 10 μM
T-47D = test: NCI one-dose screening, breast cancer T-47D; type: cell-based, human; settings: 10 μM
MDA, -MB-435 = test: NCI one-dose screening, breast cancer MDA, -MB-435; type: cell-based, human; settings: 10 μM; listed under Melanoma
human tumor cell lines = test: NCI one-dose screening, Mean / Delta / Range of growth percent over all tested cell lines; type: cell-based; settings: 10 μM

For “4-(2,5-dichloro-phenyl thio)anthra[2,1-c] [1,2,5]thiadiazol oxazole-6,11-dione [C35]”, the IC50 [1] was greater than 15 µM, the “Growth Percent HL-60(TB)” value (HL-60, TB) was 72.72% and the “Growth Percent MOLT-4” value (MOLT-4) was 1.27%. For the same substance, the “Growth Percent SR” value (SR) was 41.15%, the “Growth Percent RPMI-8226” value (PRMI-8226 cell line) was 77.16% and the “Growth Percent K562” value (K562cell line) was 47.80%. For the same substance, the “Growth Percent EKVX” value (EKVX) was 109.03%, the “Growth Percent HOP-62” value (HOP-62) was 63.18% and the “Growth Percent HOP-92” value (HOP-92) was 65.12%. The “Growth Percent NCI-H226” value (NCI-H226) was 112.00%, the “Growth Percent NCI-H23” value (NCI-H23) was 74.59% and the “Growth Percent NCI-H460” value (NCI-H460) was 100.98%. The “Growth Percent NCI-H522” value (NCI-H522) was 91.29%, the “Growth Percent A549/ATCC” value (A549/ATCC) was 102.75% and the “Growth Percent COLO 205” value (COLO 205) was 109.65%. The “Growth Percent HCC-2998” value (HCC-2998) was 109.37%, the “Growth Percent HCT-116” value (HCT-116) was 81.94% and the “Growth Percent HCT-15” value (HCT-15) was 92.85%. For the same substance, the “Growth Percent KM12” value (KM12) was 101.18%, the “Growth Percent HT29” value (HT29) was 106.27% and the “Growth Percent SF-268” value (SF-268) was 82.95%. The “Growth Percent SF-295” value (SF-295) was 78.93%, the “Growth Percent SF-539” value (SF-539) was 88.74% and the “Growth Percent SNB-19” value (SNB-19) was 84.39%. The “Growth Percent SNB-75” value (SNB-75) was 47.00%, the “Growth Percent U251” value (U251) was 63.57% and the “Growth Percent LOX IMVI” value (LOX IMVI) was 73.05%. The “Growth Percent MALME-3M” value (MALME-3M) was 94.30%, the “Growth Percent M14” value (M14) was 98.95% and the “Growth Percent UACC-62” value (UACC-62) was 94.09%. For the same substance, the “Growth Percent UACC-257” value (UACC-257) was 119.38%, the “Growth Percent SK-MEL-2” value (SK-MEL-2) was 101.38% and the “Growth Percent SK-MEL-28” value (SK-MEL-28) was 122.69%. For the same substance, the “Growth Percent SK-MEL-5” value (SK-MEL-5) was 108.82%, the “Growth Percent IGROV1” value (IGROV1) was 78.13% and the “Growth Percent OVCAR-3” value (OVCAR-3) was 99.41%. For the same substance, the “Growth Percent OVCAR-5” value (OVCAR-5) was 108.82%, the “Growth Percent OVCAR-8” value (OVCAR-8) was 85.13% and the “Growth Percent SK-OV-3” value (SK-OV-3) was 84.09%. For the same substance, the “Growth Percent 786-0” value (786-O) was 67.49%, the “Growth Percent CAKI-1” value (CAKI-1) was 108.19% and the “Growth Percent A498” value [2] was 87.70%. For the same substance, the “Growth Percent ACHN” value (ACHN) was 88.50%, the “Growth Percent SN12C” value (SN12C) was 96.65% and the “Growth Percent TK-10” value (TK-10) was 111.76%. The “Growth Percent UO-31” value (UO-31) was 91.54%, the “Growth Percent RXF 393” value (RXF, 393) was 91.47% and the “Growth Percent DU145” value (DU145) was 102.44%. The “Growth Percent PC-3” value (PC-3) was 80.59%, the “Growth Percent MCF7” value (MCF7) was 85.16% and the “Growth Percent HS 578T” value (HS 578-T) was 72.51%. The “Growth Percent MDA-MB-231/ATCC” value (MDA-MB-231/ATCC) was 82.44%, the “Growth Percent MDA-MB-468” value (MDA-MB-468) was 90.73% and the “Growth Percent NCI/ADR-RES” value (NCl/ADR-RES) was 83.13%. For the same substance, the “Growth Percent BT-549” value (BT-549) was 79.66%, the “Growth Percent T-47D” value (T-47D) was 63.44% and the “Growth Percent MDA-MB-435” value (MDA, -MB-435) was 105.64%. For the same substance, the “Growth Percent Delta” value (human tumor cell lines; delta over all cell lines) was 85.86%, the “Growth Percent Mean” value (human tumor cell lines; mean over all cell lines) was 87.13% and the “Growth Percent Range” value (human tumor cell lines; range over all cell lines) was 121.42%.
